Results as given in US12571800B2, “Means and methods for treating angiogenesis-related diseases” (Heidelberg Biotech GmbH, priority 2011, dated 2026).
Values belong to the molecule of their own block, whether it stands above or below them.

Assays:
Wild type LLC tumors = experiment: Wild type LLC lung cancer model, prevention trial; assay type: in vivo, C57B16 mice
Procedure: Wild type LLC tumors (10.000 cells) were implanted s.c. in C57B16 mice. Tumors were sham treated (PBS, control), with the reference FN-mimetic-peptide (“FN-Motif”) containing only the “[…]” sequence (SEQ ID NO: 8) or with murine Superstatin (SEQ ID NO: 7) at the dose of 50 μg peptide in 100 μl PBS every 12 h s.c. (n: 5 in each group). Treatment was started 4 days after tumor implantation (“prevention trial”) and continued for 24 days. […] Tumor size reaching 1000 mm^2 was considered as death event in the Kaplan-Meier analysis.
Tumors were sham treated (PBS), with the reference FN-mimetic-peptide containing only the “[…]” sequence (SEQ ID NO: 8; FN motif) or with murine Superstatin (SEQ ID NO: 7) at the dose of 50 μg peptide in 100 μl PBS every 12 h s.c. (n: 5 in each group). Treatment was started 4 days after tumor implantation (“prevention trial”) and continued for 24 days. […] Tumor size reaching 1000 mm^2 was considered as death event in the Kaplan-Meier analysis.

[1] = system: Fc-Endostatin-resistant LLC cells (Endo P4); experiment: Fc-Endostatin-resistant LLC tumors, passage 5, IGF1R inhibitor; assay type: in vivo, C57B16 mice
Source text: Previously generated passage four Fc-Endostatin-resistant LLC cells (Endo P4, as described in the following examples) were subcutaneously injected to C57B16 mice.

fibronectin [2] = target: T1, fibronectin (Homo sapiens, UniProt P02751); experiment: Biacore (SPR) equilibrium binding constants to fibronectin; conditions: fibronectin 0.78 nM-100 nM over immobilized protein; values only in FIG. 1C
T1 sequence (P02751 32-2477): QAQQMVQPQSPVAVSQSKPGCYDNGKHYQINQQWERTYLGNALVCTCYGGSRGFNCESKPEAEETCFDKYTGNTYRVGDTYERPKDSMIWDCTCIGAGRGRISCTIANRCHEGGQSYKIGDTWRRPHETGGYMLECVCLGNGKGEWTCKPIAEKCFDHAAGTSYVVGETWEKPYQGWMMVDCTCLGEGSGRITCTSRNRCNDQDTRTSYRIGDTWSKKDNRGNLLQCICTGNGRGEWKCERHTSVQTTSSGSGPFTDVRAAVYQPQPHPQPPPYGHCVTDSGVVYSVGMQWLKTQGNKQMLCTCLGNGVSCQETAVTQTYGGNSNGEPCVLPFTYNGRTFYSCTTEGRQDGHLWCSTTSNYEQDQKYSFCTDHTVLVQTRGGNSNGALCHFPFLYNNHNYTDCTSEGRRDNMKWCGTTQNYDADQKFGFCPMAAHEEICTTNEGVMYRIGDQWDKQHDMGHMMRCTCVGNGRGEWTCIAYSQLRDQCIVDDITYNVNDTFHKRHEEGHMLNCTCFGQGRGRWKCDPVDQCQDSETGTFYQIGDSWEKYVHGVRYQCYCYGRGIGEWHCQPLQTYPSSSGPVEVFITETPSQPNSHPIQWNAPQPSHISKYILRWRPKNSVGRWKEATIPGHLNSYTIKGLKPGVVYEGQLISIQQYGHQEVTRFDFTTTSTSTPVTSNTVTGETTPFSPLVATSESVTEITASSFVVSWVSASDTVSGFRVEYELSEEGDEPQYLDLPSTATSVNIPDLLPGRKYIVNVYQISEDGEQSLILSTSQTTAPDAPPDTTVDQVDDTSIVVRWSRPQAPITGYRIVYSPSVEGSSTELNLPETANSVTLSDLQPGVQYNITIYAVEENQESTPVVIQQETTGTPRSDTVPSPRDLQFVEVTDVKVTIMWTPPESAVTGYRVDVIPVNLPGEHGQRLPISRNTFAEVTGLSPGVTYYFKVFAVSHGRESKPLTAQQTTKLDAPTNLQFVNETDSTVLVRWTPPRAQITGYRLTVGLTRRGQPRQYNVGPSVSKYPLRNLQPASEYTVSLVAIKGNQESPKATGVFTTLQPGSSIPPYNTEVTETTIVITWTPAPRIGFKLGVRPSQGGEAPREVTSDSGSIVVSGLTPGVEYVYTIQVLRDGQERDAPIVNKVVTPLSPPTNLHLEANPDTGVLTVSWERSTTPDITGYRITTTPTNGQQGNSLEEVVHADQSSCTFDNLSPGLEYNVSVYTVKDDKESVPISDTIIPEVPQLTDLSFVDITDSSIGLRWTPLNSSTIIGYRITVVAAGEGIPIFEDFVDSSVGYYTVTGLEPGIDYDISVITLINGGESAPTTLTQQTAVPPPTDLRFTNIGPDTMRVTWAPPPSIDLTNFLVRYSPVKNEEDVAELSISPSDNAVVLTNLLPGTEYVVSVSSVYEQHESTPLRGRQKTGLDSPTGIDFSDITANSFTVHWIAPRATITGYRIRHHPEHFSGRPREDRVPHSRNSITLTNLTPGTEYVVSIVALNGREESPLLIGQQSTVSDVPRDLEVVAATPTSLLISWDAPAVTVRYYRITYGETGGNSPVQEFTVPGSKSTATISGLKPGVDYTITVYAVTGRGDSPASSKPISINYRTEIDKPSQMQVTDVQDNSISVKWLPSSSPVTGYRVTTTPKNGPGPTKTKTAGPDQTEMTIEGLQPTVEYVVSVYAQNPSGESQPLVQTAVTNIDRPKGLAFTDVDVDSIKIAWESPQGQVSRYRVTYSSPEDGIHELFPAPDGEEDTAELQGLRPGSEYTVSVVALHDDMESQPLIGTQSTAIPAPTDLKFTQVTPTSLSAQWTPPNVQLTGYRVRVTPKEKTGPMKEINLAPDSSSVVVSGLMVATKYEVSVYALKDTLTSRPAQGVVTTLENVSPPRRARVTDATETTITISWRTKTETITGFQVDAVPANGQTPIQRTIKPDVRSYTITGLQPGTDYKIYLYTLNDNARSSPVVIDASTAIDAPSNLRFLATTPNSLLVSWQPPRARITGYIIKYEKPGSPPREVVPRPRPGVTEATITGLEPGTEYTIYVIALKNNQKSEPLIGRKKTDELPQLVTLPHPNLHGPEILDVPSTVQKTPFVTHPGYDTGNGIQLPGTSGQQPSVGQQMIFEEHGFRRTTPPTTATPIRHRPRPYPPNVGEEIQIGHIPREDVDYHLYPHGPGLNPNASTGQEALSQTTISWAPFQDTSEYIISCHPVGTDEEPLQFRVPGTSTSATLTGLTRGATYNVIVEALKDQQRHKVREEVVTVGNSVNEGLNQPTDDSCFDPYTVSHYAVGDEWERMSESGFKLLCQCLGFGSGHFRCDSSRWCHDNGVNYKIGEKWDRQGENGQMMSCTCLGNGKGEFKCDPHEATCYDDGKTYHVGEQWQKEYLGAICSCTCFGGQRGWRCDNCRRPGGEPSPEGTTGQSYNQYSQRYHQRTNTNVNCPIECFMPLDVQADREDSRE
Procedure: Fibronectin samples were prepared by serial dilution into 0.01 M Hepes, pH 7.4, 0.15 M NaCl, 0.05% Surfactant containing 1 mg/ml BSA in the range 0.78 nM-100 nM and flowed over control and derivatized surfaces for three minutes at a flow-rate of 60 μl/min. Dissociation phases were monitored for 5 minutes. Zero concentration blank buffer cycles were included as negative control samples. Sensor surfaces were regenerated using a 1 minute injection of 1 M ethanolamine, pH 8.5 following each interaction analysis cycle. Non-specific binding effects to sensor surface CM4 were not observed. Calculated ka, kd and KD are shown. Different curves correspond to different concentrations of fibronectin.
1.3 Surface Plasmon Resonance (SPR) binding assays. This analysis provides for a unique method for measuring equilibrium constants between two binding partners. It is able to evaluate the kinetics of an interaction by recording the rates of complex formation (ka) and dissociation (kd) followed by employing a software which determines the values of these two parameters. Equilibrium constant (KD) is obtained by calculating the ration of kd/ka Human VEGF (R&D), endostatin, endostatin dimer and human NC-1 (hNC-1) were diluted to 50 μg/ml in 10 mM Sodium Acetate, pH 5.5 and immobilized onto series S sensor chip(s) CM4 via a standard N-ethyl-N′-(dimethyl-aminopropyl)carbodiimide/N-hydroxysuccinimide (EDC/NHS) amine coupling procedures. Control surfaces were prepared similarly without protein derivatization and utilized as a reference surface for compound binding experiments.
Binding measurements were performed using a Biacore™ (GE Healthcare, Uppsala, Sweden) instrument which employs surface plasmon resonance to detect and monitor molecular interactions.
Data analysis was carried out using Biacore T100 evaluation software v1.1.1. Data were prepared by subtraction of reference surface data and blank buffer sample data, a procedure commonly referred to as ‘double referencing’ and fitted to a 1:1 langmuir binding model.
In order to measure equilibrium binding constants for the above proteins, a Biacore system was employed. […] Fc-endostatin imposes a dimeric structure on the two molecules of endostatin at the C-terminus of Fc dimer.

fibronectin [3] = target: T1, fibronectin; experiment: Elisa, binding to fibronectin; conditions: proteins coated at 10 μg/ml; fibronectin as ligand at the same concentration
Procedure: Coating of proteins were done in PBS at concentration of 10 μg/ml. Fibronectin served as a ligand at the same concentration. All buffers contained 2% BSA, 0.1% Tween-20.
Three protein constructs human Fc (control), dimeric human (h)Fc-Endostatin and hFc-VEGF were employed. […] Artificial endostatin dimer was generated by introducing a single mutation in amino acid position 7 of endostatin (changing glutamine to cysteine) in the recombinant Fc-endostatin. Upon digestion of this mutant protein by enterokinase, endostatin dimer is produced, linked by a disulfide bond (Kuo et al., loc. cit.).

LLC FN −/− tumor cells = experiment: Fibronectin knockdown LLC tumor model; assay type: in vivo, C57B16 mice; conditions: treatment started day 4 post implantation; p<0.01 vs control or Fc-Endostatin
Source text: In contrast, the Superstatin peptide (SEQ ID NO: 7) exerts potent tumor growth inhibition in FN −/− LLC tumors growing s.c. in C57B16 mice.
Once the efficacy of the Superstatin peptide (SEQ ID NO: 7) was confirmed, the inventors moved toward the second strategy to validate the proposed concept that FN signaling is critical for oligomeric NC-1 to exert their anti-angiogenic and anti-tumoral effects. […] LLC FN −/− tumor cells (100.000) were implanted in C57B16 mice and treatment with dimeric murine Fc-Endostatin vs. Superstatin was started on day 4 post implantation. Knockdown of FN rendered LLC tumors resistant to oligomeric NC-1 (Fc-Endostatin).

VEGF = target: T2, VEGF (Homo sapiens, UniProt P15692); experiment: Competition with VEGF-ED-dimer (Fc-Endostatin) binding; conditions: preliminary data
T2 sequence (P15692 207-395 limits assumed): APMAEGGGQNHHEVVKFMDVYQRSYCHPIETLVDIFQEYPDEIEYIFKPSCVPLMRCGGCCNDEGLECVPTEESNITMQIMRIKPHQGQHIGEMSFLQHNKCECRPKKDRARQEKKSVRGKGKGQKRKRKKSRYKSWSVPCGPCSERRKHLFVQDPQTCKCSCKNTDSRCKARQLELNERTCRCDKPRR
Source text: The first approach was to engineer a minimal peptide sequence that would mimic the key effects of the ED-FN complex. […] Preliminary data by the present inventors indicate that this region itself may be capable of binding to VEGF and that the two histidines (Zinc binding domain) in this peptide sequence may be critical for VEGF binding. […] On the other hand, fibronectin contains two active motifs that are critical for its binding to ITGA5B1, i.e. a PHSRN-(SEQ ID NO:20) and a RGD-dependent motif.

[4] = cited from earlier work
[5] = system: human melanoma cancer cells (A2058); experiment: A2058 human melanoma tumors in nude mice; assay type: in vivo; conditions: end of experiment; s.c. once a day; hNC-1 100 μg/mouse, endostatin 100 and 500 μg/mouse
Procedure: 4-6 tumor-bearing nude mice in each group were subcutaneously (s.c.) treated with hNC-1 (100 μg/mouse once a day), clinical-grade endostatin (100 and 500 μg/mouse once a day) or PBS. Treatment was stopped prior to the development of necrosis. Sites of injection were away from tumors. Tumor sizes and the ratio of treated/control (T/C) is shown.
1.4 Animal and tumor models. All animal procedures were carried out in compliance with Children's Hospital Boston guidelines Protocols were approved by the Institutional Animal Care and Use Committee. Eight-week-old male (24-27 g) nude/nude mice (Massachusetts General Hospital, Boston, MA) were used. Mice were acclimated, caged in groups of five in a barrier care facility, and fed animal chow and water ad libitum. Animals were euthanized by CO2 inhalation. Human melanoma cell line A2058 was used for animal studies. A suspension of 2×10^6 tumor cells in 0.1 ml of PBS was injected subcutaneously (s.c.) into the dorsa of mice at the proximal midline. Mice were weighed and tumors were monitored twice a week in two diameters with digital calipers. Tumor volumes were determined using a^2×b×0.52 (where a is the shortest and b is the longest diameter). Tumors were allowed to grow to ˜100 mm^3 and mice were randomized. Treatment was by bolus s.c. injections. After experiments were completed, tumors and organs were excised and fixed in either 4% paraformaldehyde or were snap frozen. Four to six mice were treated with each group.
2.6 hNC-1 suppresses tumor growth in vivo. In order to compare anti-tumor activities of NC-1 and endostatin, nude mice bearing human melanoma cell line A2058 were employed. Two doses of clinical grade endostatin differing by 5-fold in concentration of protein (low and high doses) were used. […] It cannot be ruled out the possibility that injected NC-1 becomes degraded upon entering the circulation.

α5β1 = α5β1 (Homo sapiens, UniProt P05556+P08648); experiment: Direct binding to integrin α5β1 (Elisa, immunoprecipitation, cell adhesion); conditions: immunoprecipitation and cell adhesion assays
Chain of α5β1 (P08648 42-894 limits assumed): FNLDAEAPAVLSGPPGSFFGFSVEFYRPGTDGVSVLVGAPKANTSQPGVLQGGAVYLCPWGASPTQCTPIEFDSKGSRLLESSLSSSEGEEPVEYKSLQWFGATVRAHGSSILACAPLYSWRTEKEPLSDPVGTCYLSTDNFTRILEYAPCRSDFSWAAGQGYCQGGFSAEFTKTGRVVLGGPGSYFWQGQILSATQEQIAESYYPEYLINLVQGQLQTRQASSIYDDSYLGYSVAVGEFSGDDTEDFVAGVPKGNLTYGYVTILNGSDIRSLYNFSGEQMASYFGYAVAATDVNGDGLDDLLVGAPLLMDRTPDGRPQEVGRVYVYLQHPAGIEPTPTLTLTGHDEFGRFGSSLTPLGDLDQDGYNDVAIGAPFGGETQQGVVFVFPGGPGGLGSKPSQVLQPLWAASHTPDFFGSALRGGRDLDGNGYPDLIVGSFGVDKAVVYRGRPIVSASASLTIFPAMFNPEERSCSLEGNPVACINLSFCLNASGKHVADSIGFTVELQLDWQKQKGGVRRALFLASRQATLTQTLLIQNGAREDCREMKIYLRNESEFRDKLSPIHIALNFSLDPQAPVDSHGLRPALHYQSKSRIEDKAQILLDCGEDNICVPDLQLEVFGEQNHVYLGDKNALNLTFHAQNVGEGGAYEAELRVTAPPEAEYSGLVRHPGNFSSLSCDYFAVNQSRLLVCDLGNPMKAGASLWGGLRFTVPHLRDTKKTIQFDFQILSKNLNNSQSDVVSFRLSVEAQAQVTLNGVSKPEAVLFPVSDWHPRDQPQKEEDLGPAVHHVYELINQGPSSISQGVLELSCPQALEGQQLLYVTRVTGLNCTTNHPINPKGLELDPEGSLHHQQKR
Chain of α5β1 (P08648 895-1049 limits assumed): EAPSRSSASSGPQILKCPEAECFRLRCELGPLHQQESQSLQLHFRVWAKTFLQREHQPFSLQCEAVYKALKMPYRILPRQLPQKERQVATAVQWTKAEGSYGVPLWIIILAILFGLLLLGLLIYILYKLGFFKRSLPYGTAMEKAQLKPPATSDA
Chain of α5β1 (P05556 21-798): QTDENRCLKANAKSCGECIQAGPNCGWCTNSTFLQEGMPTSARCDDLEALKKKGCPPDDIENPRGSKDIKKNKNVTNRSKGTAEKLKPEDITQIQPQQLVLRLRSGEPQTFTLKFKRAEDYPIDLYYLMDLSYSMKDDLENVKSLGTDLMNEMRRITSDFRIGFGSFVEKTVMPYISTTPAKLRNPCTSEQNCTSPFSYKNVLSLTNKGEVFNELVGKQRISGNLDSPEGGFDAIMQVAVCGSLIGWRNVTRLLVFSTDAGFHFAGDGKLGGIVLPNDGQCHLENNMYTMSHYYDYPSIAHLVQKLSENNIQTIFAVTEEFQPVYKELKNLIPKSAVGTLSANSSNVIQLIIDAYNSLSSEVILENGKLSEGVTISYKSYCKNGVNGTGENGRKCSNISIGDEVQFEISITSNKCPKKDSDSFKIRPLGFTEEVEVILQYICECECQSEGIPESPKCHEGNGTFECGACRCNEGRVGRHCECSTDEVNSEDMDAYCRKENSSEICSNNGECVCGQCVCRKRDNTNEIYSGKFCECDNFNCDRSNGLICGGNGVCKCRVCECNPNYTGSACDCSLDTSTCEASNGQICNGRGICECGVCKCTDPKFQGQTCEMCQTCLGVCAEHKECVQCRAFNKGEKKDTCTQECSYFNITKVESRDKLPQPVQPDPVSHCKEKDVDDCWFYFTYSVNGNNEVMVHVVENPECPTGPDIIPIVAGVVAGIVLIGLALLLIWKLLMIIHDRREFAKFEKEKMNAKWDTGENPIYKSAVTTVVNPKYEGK
Source text: Endostatin binding to two integrins αvβ3 and α5β1 was first reported in 2001 (Rehn et al. 2001, PNAS 98, 1024). Presumably, such a binding inhibits interactions of fibronectin with these integrins. […] Endostatin lacks the sequence RGD. Consequently, such a binding must be mediated by other amino acids on endostatin.

[6] = in vivo; cited from earlier work
[7] = 50 μg peptide every 12 h s.c., day 4 on for 24 days

Molecule: FN-Motif: LYAVTGRGDSPASSK (SEQ ID NO: 8; same sequence as SEQ ID NO: 11) (listed as Mus musculus) [reference compound]
- tumor growth (Wild type LLC tumors; [7]): no significant improvement in prevention of tumor growth

Molecule: COc1cc([C@@H]2c3cc4c(cc3[C@H](O)[C@H]3COC(=O)[C@@H]23)OCO4)cc(OC)c1OC [PPP, cyclolignan picropodophyllin]
- tumor growth, sequential IGF1R inhibition ([1]; 20 mg/kg IP, sequential to mFc-Endo): inhibited tumor growth
- tumor growth, concurrent administration ([1]; concurrent with mFc-Endo): only partially reversed the enhanced growth kinetic
- protein expression in passage 5 LLC tumors (Western blot) ([1]; mouse, in vivo): partially reversed this phenotype

Molecule: Superstatin: HTHQDFQPVLHLVLYAVTGRGDSPASSK (SEQ ID NO: 7), NC1-ED Motif-FN-Motif hybrid (listed as Mus musculus)
- tumor growth (Wild type LLC tumors; [7]): potently inhibit tumor growth
- survival (Kaplan-Meier) as compared to control (Wild type LLC tumors; 50 μg peptide every 12 h s.c., day 4 on for 24 days, p<0.03 by log-rank test): significantly prolonged survival
- tumors growing during the treatment period (Wild type LLC tumors; n: 5 in each group): only a single tumor grew
- tumor growth in FN −/− LLC tumors (LLC FN −/− tumor cells): significantly inhibited tumor growth

Molecule: mP1-H1/3A: ATAQDFQPVLHLVALNTPLSGGMRGIR (SEQ ID NO: 19) (mP1-H1/3A)
- competition with VEGF-ED-dimer (Fc-Endostatin) binding (VEGF): failed to compete

B1: endostatin: 183-amino acid proteolytic cleavage fragment corresponding to the C-terminus of collagen 18 (protein, UniProt P39060 1572-1754, looked up)
Endostatin: HSHRDFQPVLHLVALNSPLSGGMRGIRGADFQCFQQARAVGLAGTFRAFLSSRLQDLYSIVRRADRAAVPIVNLKDELLFPSWEALFSGSEGPLKPGARIFSFDGKDVLRHPTWPQKSVWHGSDPNGRRLTESYCETWRTEAPSATGQASSLLGGRLLGQSAASCHHAYIVLCIENSFMTASK
modifications: Endostatin
- anti-tumor activity in clinical trials ([4]; in vivo): did not demonstrate substantial endostatin anti-tumor activity
- safety in clinical trials ([4]; variety of dose schedules): very safe drug
- inhibition of tumor growth [5]: 48%
- direct binding to α5β1 (α5β1): without success
- equilibrium binding constant to fibronectin (Biacore) (fibronectin [2]): No binding was detected
- binding to fibronectin (Elisa) (fibronectin [3]): did not
- half-life in circulation [6]: very short

Results, then the molecule that gave them:

- equilibrium binding constant to fibronectin (Biacore) (fibronectin [2]): High affinity constants
- binding to fibronectin (Elisa) (fibronectin [3]): bound fibronectin
Molecule: VEGF [reference compound]

- equilibrium binding constant to fibronectin (Biacore) (fibronectin [2]): High affinity constants
- binding to fibronectin (Elisa) (fibronectin [3]): bound fibronectin
B2: Endostatin dimer: disulfide-linked endostatin dimer, glutamine to cysteine at position 7, released from Fc-endostatin by enterokinase (protein, UniProt P39060 1572-1754, looked up, variant Q7C)
Endostatin: HSHRDFCPVLHLVALNSPLSGGMRGIRGADFQCFQQARAVGLAGTFRAFLSSRLQDLYSIVRRADRAAVPIVNLKDELLFPSWEALFSGSEGPLKPGARIFSFDGKDVLRHPTWPQKSVWHGSDPNGRRLTESYCETWRTEAPSATGQASSLLGGRLLGQSAASCHHAYIVLCIENSFMTASK
modifications: Endostatin disulfide-linked dimer
notes: disulfide-linked endostatin dimer, glutamine to cysteine at position 7, released from Fc-endostatin by enterokinase
